Patent US20230293676A1, “Pharmaceutical Composition Comprising Hepatitis B Virus-Derived Polypeptide for Prevention or Treatment of Cancer” (priority 2020, published 2023)
Ends that are not written are not given here.

Assays:
[1] = test system: MC38 murine colon cancer cell; test: cytotoxicity against cancer cells by poly6-treated DC2.4 cells, FACS; assay type: cell-based
Description: (§1) FIG. 7 illustrates the results of confirming that the cytotoxicity of various cancer cell lines (MC38, B16F10, and EO771) was reduced when iNOS formation was inhibited by L-NAME (5 mM) treatment while stimulating DC2.4 cells with poly6 for 24 hours (statistical significance was tested by Student's t-test. *, P<0.05; **, P<0.01; and ***, P<0.001).

[2] = test system: B16F10 murine melanoma cancer cell; test: as above; assay type: cell-based
Description: as §1

EO771 = test: as above; assay type: cell-based, murine
Description: as §1

[3] = test system: MDA231 human breast cancer cell; conditions: concentration-dependent
[4] = test system: PanO2 murine pancreatic cancer cell; conditions: concentration-dependent
[5] = L-NAME 5 mM while stimulating DC2.4 with poly6 for 24 hours
[6] = DC2.4 treated with 10 μM of poly6 vs LPS (1 μg/ml)

Compound	cytotoxicity when iNOS formation was inhibited [1, 5]	cytotoxicity when iNOS formation was inhibited [2, 5]	cytotoxicity when iNOS formation was inhibited (EO771; [5])	cytotoxicity against cancer cells compared to LPS [1, 6]	cytotoxicity by poly6-stimulated DC2.4 cells ([1]; concentration-dependent)	cytotoxicity against cancer cells compared to LPS [2, 6]	cytotoxicity by poly6-stimulated DC2.4 cells ([2]; concentration-dependent)	cytotoxicity by poly6-stimulated DC2.4 cells (EO771; concentration-dependent)	cytotoxicity by poly6-stimulated DC2.4 cells [3]	cytotoxicity by poly6-stimulated DC2.4 cells [4]
COC(=O)[C@@H](N)CCCNC(=N)N[N+](=O)[O-] [L-NAME, reference compound]	reduced	reduced	reduced	–	–	–	–	–	–	–
GRLVFQ [poly6, GRLVFQ]	–	–	–	statistically significantly increased	cytotoxicity was induced	statistically significantly increased	cytotoxicity was induced	cytotoxicity was induced	cytotoxicity was induced	cytotoxicity was induced
